Some test systems named below: A498 renal; A549 NSCLC; CCRF-CEM leukemia; EKVX NSCLC; HOP-62 NSCLC; HOP-92 NSCLC; IGROV1 ovarian; MDA-MB-231 breast; NCI-H522 lung; SNB-19 CNS.
Common to all, as to assay: inhibition of tumour cell growth, NCI panel, 48 h

SMILES strings stand for the structures. “And” between values parts separate entries of the source, which are not always exact repeats. Identical values can stand only once.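 Values below derive from 48-hour exposures of cells grown in 96-well plates, with endpoints linearly interpolated between the two concentrations bracketing the appropriate inhibition level. Here, GI50 denotes the concentration required for 50% inhibition of growth. TGI marks complete inhibition of growth.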

As for `OCC1SC(n2cnc3cncnc32)C(O)C1O` (stereo not given), the GI50 in the test with A498 renal is greater than 100 µM; in the test with A549 NSCLC it was greater than 100 µM; with CCRF-CEM leukemia, greater than 100000 nM; with EKVX NSCLC, greater than 100 µM; with HOP-62 NSCLC it was greater than 100 µM; with HOP-92 NSCLC, 48100 nM. For the same compound, the GI50 in the test on IGROV1 ovarian is greater than 100 µM; in the test with MDA-MB-231 breast it was greater than 100 µM; with NCI-H522 lung, greater than 100000 nM; in the test with SNB-19 CNS it was greater than 100 µM. For the same compound, the TGI with A498 renal, with A549 NSCLC, with CCRF-CEM leukemia, in the test with EKVX NSCLC, in the test with HOP-62 NSCLC and in the test on HOP-92 NSCLC was greater than 100 µM in each case. Besides, the TGI in the test on IGROV1 ovarian, in the test with MDA-MB-231 breast, with NCI-H522 lung and with SNB-19 CNS was greater than 100 µM each time.

Regarding `O=S(=O)(Nc1ccc(-c2nc(-c3cccc(OCCN4CCOCC4)c3)c(-c3ccnc(Br)c3)[nH]2)cc1)c1ccccc1`, the GI50 with A498 renal is 1.53 µM; in the test with A549 NSCLC, 3.35 µM; in the test with CCRF-CEM leukemia it was 2890 nM; in the test with EKVX NSCLC it was 3.4 µM; in the test on HOP-62 NSCLC, 3.5 µM; with HOP-92 NSCLC, 2410 nM. In addition, the GI50 with IGROV1 ovarian was 3.98 µM; in the test on MDA-MB-231 breast, 3.23 µM; in the test on NCI-H522 lung, 3140 nM; in the test with SNB-19 CNS, 6.07 µM. Moreover, the TGI in the test with A498 renal is 6.94 µM; with A549 NSCLC, greater than 100 µM; in the test on CCRF-CEM leukemia it was greater than 100 µM; in the test on EKVX NSCLC it was greater than 100 µM; with HOP-62 NSCLC, 57.3 µM; in the test with HOP-92 NSCLC it was 8.18 µM. Also, the TGI in the test with IGROV1 ovarian was greater than 100 µM; with MDA-MB-231 breast, 63.6 µM; with NCI-H522 lung, greater than 100 µM; with SNB-19 CNS, greater than 100 µM.

For the compound `C[C@]12CC[C@H](O)CC1=CC[C@@H]1[C@@H]2CC[C@]2(C)C(=O)/C(=C/c3cccc(OCCCn4ccnc4)c3)C[C@@H]12`, the GI50 in the test with A498 renal was 20.5 µM; with A549 NSCLC it was 13.8 µM; in the test on CCRF-CEM leukemia it was 16400 nM; with EKVX NSCLC, 21.1 µM; in the test on HOP-62 NSCLC, 20.4 µM; in the test with HOP-92 NSCLC, 12600 nM. In addition, the GI50 with IGROV1 ovarian is 19.4 µM; with MDA-MB-231 breast it was 20.6 µM; with NCI-H522 lung, 16600 nM; in the test with SNB-19 CNS, 27 µM. Moreover, the TGI was 39.1 µM with A498 renal; 28.8 µM with A549 NSCLC; greater than 100 µM with CCRF-CEM leukemia; 46.3 µM in the test with EKVX NSCLC; 38.2 µM in the test with HOP-62 NSCLC; 32.3 µM with HOP-92 NSCLC. Besides, the TGI in the test with IGROV1 ovarian was determined as 46.2 µM; in the test on MDA-MB-231 breast, 40.4 µM; in the test with NCI-H522 lung, 34.2 µM; in the test with SNB-19 CNS, 77.3 µM.

As to `OCCN1CCN(CCCN2c3ccccc3Sc3ccc(C(F)(F)F)cc32)CC1`, the GI50 with A498 renal is 2.28 µM and 9.65 µM and 10.4 µM; in the test with A549 NSCLC, 2.79 µM and 10.8 µM and 9.54 µM; in the test with CCRF-CEM leukemia, 2590 nM; with EKVX NSCLC, 5.18 µM and 11.6 µM and 10.4 µM; with HOP-62 NSCLC it was 3.11 µM and 13.1 µM and 11.6 µM; with HOP-92 NSCLC it was 708 nM. Also, the GI50 in the test on IGROV1 ovarian was 2.57 µM and 11.3 µM and 10.2 µM; in the test with MDA-MB-231 breast, 1.2 µM and 8.87 µM and 5.68 µM; with SNB-19 CNS, 2.08 µM and 14 µM and 12.3 µM. In addition, the TGI is 10.3 µM and 23.4 µM and 28.1 µM in the test on A498 renal; 9.84 µM and 24 µM and 22.9 µM in the test with A549 NSCLC; 9.67 µM in the test on CCRF-CEM leukemia; 12.7 µM and 29.2 µM and 30.4 µM with EKVX NSCLC; 9.82 µM and 27.4 µM and 24.7 µM in the test on HOP-62 NSCLC; 3.81 µM in the test on HOP-92 NSCLC. Moreover, the TGI is 9.32 µM and 28.5 µM and 30.1 µM with IGROV1 ovarian; 5.07 µM and 22.8 µM and 18.1 µM in the test with MDA-MB-231 breast; 3.49 µM and 30.1 µM and 26.8 µM with NCI-H522 lung; 8.34 µM and 30.8 µM and 27.3 µM in the test with SNB-19 CNS.

`Cc1c(Cl)cccc1NC(=O)CC1Sc2ccccc2NC1=O` (stereo not given): the TGI with A498 renal is 38.2 µM and 37.5 µM; in the test with A549 NSCLC, 54.2 µM and > 100 µM; in the test on CCRF-CEM leukemia, greater than 100 µM; in the test on EKVX NSCLC, greater than 100 µM; with HOP-62 NSCLC it was 42.3 µM and 31.1 µM; in the test on HOP-92 NSCLC it was 42.9 µM and 64 µM. The TGI was 65 µM and > 100 µM with IGROV1 ovarian; 32.1 µM in the test with MDA-MB-231 breast; 64.7 µM and 79.7 µM with NCI-H522 lung; 52.8 µM and 42.5 µM with SNB-19 CNS. Moreover, in the test on IGROV1 ovarian, the GI50 is 20 µM and 45.1 µM.

As for `COc1ccc2c(c1)O/C(=C\c1cccc(OCC(=O)Nc3nc4ccccc4s3)c1)C2=O`, the GI50 with A498 renal was 10.1 µM; in the test on A549 NSCLC, 39.8 µM; in the test with CCRF-CEM leukemia, 419 nM; in the test on EKVX NSCLC, 29 µM; in the test with HOP-62 NSCLC it was 41.1 µM; in the test with HOP-92 NSCLC, 2650 nM. In addition, the GI50 with IGROV1 ovarian was 0.121 µM; in the test with MDA-MB-231 breast it was 7.35 µM; with NCI-H522 lung it was 718 nM; with SNB-19 CNS, greater than 57.8 µM. Moreover, the TGI is greater than 93.3 µM in the test on A498 renal; greater than 100 µM with A549 NSCLC; 1.25 µM in the test with CCRF-CEM leukemia; greater than 100 µM in the test with EKVX NSCLC; greater than 100 µM with HOP-62 NSCLC; 18.4 µM in the test with HOP-92 NSCLC. For the same compound, the TGI is 0.303 µM in the test with IGROV1 ovarian, greater than 23.1 µM in the test on MDA-MB-231 breast, 2.74 µM in the test on NCI-H522 lung and greater than 100 µM in the test on SNB-19 CNS.

In the case of `O=C1C(=O)c2ccc(Br)cc2-c2cc(Br)ccc21`, the GI50 was greater than 28.1 µM in the test with A498 renal; 5.37 µM in the test with A549 NSCLC; 553 nM with CCRF-CEM leukemia; greater than 100 µM in the test with EKVX NSCLC; 8.44 µM in the test with HOP-62 NSCLC; 1360 nM in the test with HOP-92 NSCLC. Further, the GI50 with IGROV1 ovarian is 6.57 µM; in the test with MDA-MB-231 breast, 0.82 µM; in the test with NCI-H522 lung, 407 nM; in the test on SNB-19 CNS it was 11 µM. The TGI in the test with A498 renal was greater than 100 µM; with A549 NSCLC, greater than 95.6 µM; with CCRF-CEM leukemia, 1.83 µM; with EKVX NSCLC, greater than 100 µM; in the test on HOP-62 NSCLC it was greater than 45.6 µM; in the test with HOP-92 NSCLC, 9.5 µM. Besides, the TGI with IGROV1 ovarian is 29.5 µM; in the test on MDA-MB-231 breast, 2.54 µM; with NCI-H522 lung, 1.74 µM; with SNB-19 CNS, greater than 100 µM.

In the case of `CCN(CC)c1ccc(NC(C(=O)c2ccccc2)c2ccccc2)cc1` (stereo not given), the GI50 is 2.71 µM with A498 renal; 10.5 µM in the test with A549 NSCLC; 2290 nM in the test with CCRF-CEM leukemia; 3.59 µM in the test with EKVX NSCLC; 4.31 µM in the test on HOP-62 NSCLC; 2220 nM in the test on HOP-92 NSCLC. Besides, the GI50 is 4.31 µM in the test on IGROV1 ovarian, 2.85 µM with MDA-MB-231 breast, 2300 nM in the test on NCI-H522 lung and 3.45 µM with SNB-19 CNS. Moreover, the TGI came to 10.1 µM in the test with A498 renal; 54 µM in the test with A549 NSCLC; 13.5 µM in the test with CCRF-CEM leukemia; 14.4 µM with EKVX NSCLC; 16.5 µM with HOP-62 NSCLC; 8.21 µM in the test on HOP-92 NSCLC. Moreover, the TGI with IGROV1 ovarian turned out to be 18.1 µM; in the test on MDA-MB-231 breast it was 10.3 µM; with NCI-H522 lung, 7.05 µM; in the test with SNB-19 CNS it was 19.1 µM.

Values taken from PubChem BioAssay (NCI).
